Activity calls are given as the source filed them. No rule for the calls is given here.
Test system: rodent lifetime carcinogenesis bioassay, tumor incidence TD50
Experiment: chronic cancer bioassays in animals – CPDB, compiled studies (AID 1745844)

NNCCO was tested, and the TD50 (hamster, strain Syrian Golden, females, in drinking water, site: liver, lesion: hepatoma, dosed 84 weeks, study length 84 weeks) was 148 mg/kg/day (inactive), the TD50 (hamster, strain Syrian Golden, males, in drinking water, site: liver, lesion: hepatoma, dosed 84 weeks, study length 84 weeks) was 84.4 mg/kg/day (inactive) and the TD50 (mouse, strain B6AKF1, females, oral dosing, site: any site (literature study), lesion: several types, types named in the paper, dosed 78 weeks, study length 78 weeks) was 5.34 mg/kg/day. The TD50 (mouse, strain B6AKF1, males, oral dosing, site: any site (literature study), lesion: several types, types named in the paper, dosed 78 weeks, study length 78 weeks) was 0.404 mg/kg/day, the TD50 (mouse, strain B6AKF1, males, oral dosing, site: liver, lesion: hepatoma, dosed 78 weeks, study length 78 weeks) was 0.314 mg/kg/day and the TD50 (mouse, strain B6C3F1, females, oral dosing, site: any site (literature study), lesion: several types, types named in the paper, dosed 78 weeks, study length 78 weeks) was 4.77 mg/kg/day. For the same compound, the TD50 (mouse, strain B6C3F1, females, oral dosing, site: liver, lesion: hepatoma, dosed 78 weeks, study length 78 weeks) was 4.77 mg/kg/day, the TD50 (mouse, strain B6C3F1, females, oral dosing, site: lung, lesion: adenoma, dosed 78 weeks, study length 78 weeks) was 4.77 mg/kg/day and the TD50 (mouse, strain B6C3F1, males, oral dosing, site: any site (literature study), lesion: several types, types named in the paper, dosed 78 weeks, study length 78 weeks) was 0.713 mg/kg/day. For the same compound, the TD50 (mouse, strain B6C3F1, males, oral dosing, site: liver, lesion: hepatoma, dosed 78 weeks, study length 78 weeks) was 0.541 mg/kg/day, the carcinogen call (mouse, strain Swiss, females, in drinking water, site: lung, lesion: one or several types, types not named, dosed 75 weeks, study length 75 weeks) was “negative (inactive)” and the carcinogen call (mouse, strain Swiss, males, in drinking water, site: liver, lesion: several types, types named in the paper, dosed 75 weeks, study length 75 weeks) was “negative (inactive)”. For the same compound, the carcinogen call (mouse, strain Swiss, males, in drinking water, site: lung, lesion: one or several types, types not named, dosed 75 weeks, study length 75 weeks) was “negative (inactive)”.

In the case of [Cu+2].[O-]c1cccc2cccnc12.[O-]c1cccc2cccnc12, the TD50 (mouse, strain B6AKF1, females, oral dosing, site: any site (literature study), lesion: several types, types named in the paper, dosed 76 weeks, study length 76 weeks) is reported as 2490 mg/kg/day (inactive), the carcinogen call (mouse, strain B6AKF1, females, oral dosing, site: liver, lesion: hepatoma, dosed 76 weeks, study length 76 weeks) is reported as “negative (inactive)” and the carcinogen call (mouse, strain B6AKF1, females, oral dosing, site: lung, lesion: adenoma, dosed 76 weeks, study length 76 weeks) is reported as “negative (inactive)”. The TD50 (mouse, strain B6AKF1, males, oral dosing, site: any site (literature study), lesion: several types, types named in the paper, dosed 76 weeks, study length 76 weeks) was 11200 mg/kg/day (inactive), the TD50 (mouse, strain B6AKF1, males, oral dosing, site: liver, lesion: hepatoma, dosed 76 weeks, study length 76 weeks) was 967 mg/kg/day (inactive) and the carcinogen call (mouse, strain B6AKF1, males, oral dosing, site: lung, lesion: adenoma, dosed 76 weeks, study length 76 weeks) was “negative (inactive)”. The TD50 (mouse, strain B6C3F1, females, oral dosing, site: any site (literature study), lesion: several types, types named in the paper, dosed 76 weeks, study length 76 weeks) was 2490 mg/kg/day (inactive), the carcinogen call (mouse, strain B6C3F1, females, oral dosing, site: liver, lesion: hepatoma, dosed 76 weeks, study length 76 weeks) was “negative (inactive)” and the carcinogen call (mouse, strain B6C3F1, females, oral dosing, site: lung, lesion: several types, types named in the paper, dosed 76 weeks, study length 76 weeks) was “negative (inactive)”. For the same compound, the TD50 (mouse, strain B6C3F1, males, oral dosing, site: any site (literature study), lesion: several types, types named in the paper, dosed 76 weeks, study length 76 weeks) was 2050 mg/kg/day (inactive), the carcinogen call (mouse, strain B6C3F1, males, oral dosing, site: liver, lesion: hepatoma, dosed 76 weeks, study length 76 weeks) was “negative (inactive)” and the carcinogen call (mouse, strain B6C3F1, males, oral dosing, site: lung, lesion: several types, types named in the paper, dosed 76 weeks, study length 76 weeks) was “negative (inactive)”.

For Nc1ccc(N)cc1, the TD50 (mouse, strain B6C3F1, females, in feed, site: any site (literature study), lesion: several types, types named in the paper, dosed 103 weeks, study length 104 weeks) was 1500 mg/kg/day (inactive), the TD50 (mouse, strain B6C3F1, females, in feed, site: liver, lesion: hepatocellular adenoma + hepatocellular carcinoma + neoplastic nodule, dosed 103 weeks, study length 104 weeks) was 1370 mg/kg/day and the TD50 (mouse, strain B6C3F1, females, in feed, site: lung, lesion: alveolar/bronchiolar adenoma + alveolar/bronchiolar carcinoma, dosed 103 weeks, study length 104 weeks) was 1390 mg/kg/day. For the same compound, the carcinogen call (mouse, strain B6C3F1, males, in feed, site: any site (literature study), lesion: several types, types named in the paper, dosed 103 weeks, study length 104 weeks) was “negative (inactive)”, the TD50 (rat, strain Fischer 344, females, in feed, site: adrenal gland, lesion: pheochromocytoma, dosed 80 weeks, study length 80 weeks) was 4280 mg/kg/day (inactive) and the TD50 (rat, strain Fischer 344, females, in feed, site: any site (literature study), lesion: several types, types named in the paper, dosed 103 weeks, study length 116 weeks) was 247 mg/kg/day (inactive). The carcinogen call (rat, strain Fischer 344, males, in feed, site: adrenal gland, lesion: pheochromocytoma, dosed 80 weeks, study length 80 weeks) was “negative (inactive)”, the carcinogen call (rat, strain Fischer 344, males, in feed, site: any site (literature study), lesion: several types, types named in the paper, dosed 103 weeks, study length 116 weeks) was “negative (inactive)” and the TD50 (rat, strain Fischer 344, males, in feed, site: liver, lesion: hepatocellular adenoma + hepatocellular carcinoma + neoplastic nodule, dosed 103 weeks, study length 116 weeks) was 2230 mg/kg/day.

In the case of CC(I)C1OCC(CO)O1 (stereo not drawn), the TD50 (mouse, strain B6C3F1, females, by gavage, site: Harderian gland + pituitary gland, anterior, lesion: adenoma, NOS + carcinoma, NOS, dosed 103 weeks, study length 105 weeks) is reported as 92.4 mg/kg/day, the TD50 (mouse, strain B6C3F1, females, by gavage, site: Harderian gland, lesion: adenoma, NOS + carcinoma, NOS, dosed 103 weeks, study length 105 weeks) is reported as 263 mg/kg/day and the TD50 (mouse, strain B6C3F1, females, by gavage, site: any site (literature study), lesion: several types, types named in the paper, dosed 103 weeks, study length 105 weeks) is reported as 172 mg/kg/day. The TD50 (mouse, strain B6C3F1, females, by gavage, site: forestomach, lesion: squamous-cell papilloma, dosed 103 weeks, study length 105 weeks) was 608 mg/kg/day, the TD50 (mouse, strain B6C3F1, females, by gavage, site: liver, lesion: hepatocellular adenoma + hepatocellular carcinoma + neoplastic nodule, dosed 103 weeks, study length 105 weeks) was 373 mg/kg/day and the TD50 (mouse, strain B6C3F1, females, by gavage, site: liver, lesion: hepatocellular adenoma + hepatocellular carcinoma, dosed 103 weeks, study length 105 weeks) was 373 mg/kg/day. It also gave a TD50 (mouse, strain B6C3F1, females, by gavage, site: liver, lesion: hepatocellular adenoma, dosed 103 weeks, study length 105 weeks) of 471 mg/kg/day, a TD50 (mouse, strain B6C3F1, females, by gavage, site: lung, lesion: alveolar/bronchiolar adenoma + alveolar/bronchiolar carcinoma, dosed 103 weeks, study length 105 weeks) of 2740 mg/kg/day and a TD50 (mouse, strain B6C3F1, females, by gavage, site: pituitary gland, anterior, lesion: adenoma, NOS, dosed 103 weeks, study length 105 weeks) of 138 mg/kg/day. For the same compound, the carcinogen call (mouse, strain B6C3F1, males, by gavage, site: any site (literature study), lesion: several types, types named in the paper, dosed 103 weeks, study length 104 weeks) was “negative (inactive)”, the TD50 (mouse, strain B6C3F1, males, by gavage, site: liver, lesion: hepatocellular adenoma + hepatocellular carcinoma + neoplastic nodule, dosed 103 weeks, study length 104 weeks) was 1100 mg/kg/day and the TD50 (mouse, strain B6C3F1, males, by gavage, site: lung, lesion: alveolar/bronchiolar adenoma + alveolar/bronchiolar carcinoma, dosed 103 weeks, study length 104 weeks) was 2410 mg/kg/day. For the same compound, the TD50 (rat, strain Fischer 344, females, by gavage, site: any site (literature study), lesion: several types, types named in the paper, dosed 103 weeks, study length 104 weeks) was 214 mg/kg/day (inactive), the TD50 (rat, strain Fischer 344, females, by gavage, site: liver, lesion: hepatocellular adenoma + hepatocellular carcinoma + neoplastic nodule, dosed 103 weeks, study length 104 weeks) was 2490 mg/kg/day and the TD50 (rat, strain Fischer 344, males, by gavage, site: any site (literature study), lesion: several types, types named in the paper, dosed 103 weeks, study length 104 weeks) was 52.1 mg/kg/day. For the same compound, the TD50 (rat, strain Fischer 344, males, by gavage, site: liver, lesion: hepatocellular adenoma + hepatocellular carcinoma + neoplastic nodule, dosed 103 weeks, study length 104 weeks) was 571 mg/kg/day, the TD50 (rat, strain Fischer 344, males, by gavage, site: multiple organs + thyroid gland, lesion: mononuclear-cell leukemia + follicular-cell carcinoma, dosed 103 weeks, study length 104 weeks) was 84.1 mg/kg/day and the TD50 (rat, strain Fischer 344, males, by gavage, site: multiple organs, lesion: mononuclear-cell leukemia, dosed 103 weeks, study length 104 weeks) was 101 mg/kg/day. The TD50 (rat, strain Fischer 344, males, by gavage, site: nasal cavity, lesion: adenoma, NOS, dosed 103 weeks, study length 104 weeks) was 1210 mg/kg/day, the TD50 (rat, strain Fischer 344, males, by gavage, site: testis, lesion: interstitial-cell tumor, dosed 103 weeks, study length 104 weeks) was 40.6 mg/kg/day and the TD50 (rat, strain Fischer 344, males, by gavage, site: thyroid gland, lesion: follicular-cell carcinoma, dosed 103 weeks, study length 104 weeks) was 280 mg/kg/day.

With Clc1nc(Cl)nc(Nc2ccccc2Cl)n1 the TD50 (mouse, strain B6C3F1, females, in feed, site: any site (literature study), lesion: several types, types named in the paper, dosed 103 weeks, study length 107 weeks) was 99.2 mg/kg/day (inactive), the TD50 (mouse, strain B6C3F1, females, in feed, site: liver, lesion: hepatocellular adenoma + hepatocellular carcinoma + neoplastic nodule, dosed 103 weeks, study length 107 weeks) was 2550 mg/kg/day and the TD50 (mouse, strain B6C3F1, females, in feed, site: lung, lesion: alveolar/bronchiolar adenoma + alveolar/bronchiolar carcinoma, dosed 103 weeks, study length 107 weeks) was 1690 mg/kg/day. The carcinogen call (mouse, strain B6C3F1, males, in feed, site: any site (literature study), lesion: several types, types named in the paper, dosed 103 weeks, study length 107 weeks) was “negative (inactive)”, the carcinogen call (rat, strain Fischer 344, females, in feed, site: any site (literature study), lesion: several types, types named in the paper, dosed 103 weeks, study length 104 weeks) was “negative (inactive)” and the TD50 (rat, strain Fischer 344, females, in feed, site: liver, lesion: hepatocellular adenoma + hepatocellular carcinoma + neoplastic nodule, dosed 103 weeks, study length 104 weeks) was 1050 mg/kg/day. The TD50 (rat, strain Fischer 344, males, in feed, site: any site (literature study), lesion: several types, types named in the paper, dosed 103 weeks, study length 104 weeks) was 246 mg/kg/day (inactive).

In the case of CN1C(C(=O)Nc2ccccn2)=C(O)c2sc(Cl)cc2S1(=O)=O, the carcinogen call (rat, strain Sprague-Dawley, females, by gavage, site: any site (literature study), lesion: several types, types named in the paper, dosed 104 weeks, study length 104 weeks) is reported as “negative (inactive)”, the carcinogen call (rat, strain Sprague-Dawley, females, by gavage, site: kidney, lesion: one or several types, types not named, dosed 52 weeks, study length 52 weeks) is reported as “negative (inactive)” and the TD50 (rat, strain Sprague-Dawley, females, by gavage, site: liver, lesion: hepatocellular adenoma, dosed 104 weeks, study length 104 weeks) is reported as 13.2 mg/kg/day (inactive). The carcinogen call (rat, strain Sprague-Dawley, males, by gavage, site: any site (literature study), lesion: several types, types named in the paper, dosed 104 weeks, study length 104 weeks) was “negative (inactive)”, the carcinogen call (rat, strain Sprague-Dawley, males, by gavage, site: kidney, lesion: one or several types, types not named, dosed 52 weeks, study length 52 weeks) was “negative (inactive)” and the carcinogen call (rat, strain Sprague-Dawley, males, by gavage, site: liver, lesion: several types, types named in the paper, dosed 104 weeks, study length 104 weeks) was “negative (inactive)”.
